# Assays:
# [1] = test system: collagen 3A1 gene expression; assay: Real-time RT-PCR in HSC, collagen 3A1; type: cell-based, human; details: 0.625 μM, FIG. 8
# Method: (§1) Human Hepatic Stellate cells (LX-2 cell line) (HSCs) were obtained from the Key Lab of Regenerative Medicine, Jinan University, Guangzhou, China, which were maintained in Dulbecco's Modified Eagle Medium (DMEM)+10% fetal calf serum and penicillin-streptomycin (100 unit/ml and 0.1 mg/ml, respectively), in 5% CO2 at 37° C. inside a humidified cell incubator. The culture medium was changed every three days. To test the effects of small molecule Hesperadin on the mouse and human HSCs, the cultures were treated with 0.625 μM of Hesperadin for 48 hrs. […] The proliferation of HSCs was also evaluated by the MTT staining assay with 3-(4,5-Dimethylthiazol-2-yl)-2,5-diphenyltetrazolium bromide). […] The absorbance (at 570 nm) was measured using a BIORAD 3550 Microplate Reader. […]
# Collagen type-I, -III and -VI, MMP-2, MMP-9 and TIMP-1 gene expression was determined using quantitative real-time PCR. […] Quantitation of mRNA levels was performed using a SYBR® Premix Ex Taq™ Kit (Takara) in an Applied Biosystems 7900HT Fast Real-Time PCR System. To quantify the amount of specific mRNA in the samples, a standard curve was generated for each PCR run using four amounts of the cDNA synthesized from our HSC cultures and liver samples. […] Data was analyzed using a StatView software (Abacus Concepts Inc) with Student's t-test.
# human HSC's (LX-2) = assay: HSC morphology under the microscope; type: cell-based
# Method: as §1, with “In the control cultures, the HSCs appeared morphologically to be like fibroblasts (FIG. 1A). In the presence of Hesperadin, the HSC cells increased in size 2-3 folds (FIGS. 1B and C). The effect of Hesperadin on HSC growth was examined. […] The cell-cycle progression of HSCs is further analyzed in the presence of 0.625 μM Hesperadin using Flow Cytometry. […] Human” for “Human”, “hrs. The cultures were then fixed in ice cold 70% ethanol and incubated in phosphate buffered saline with RNase (0.25 mg/ml), Propidium iodide dye (40 μg/ml) and 0.1% Triton X for an hour at room temperature.” for “hrs.”
# Mammalian cells = details: cited from earlier work
structure (smiles),measurement,setting,value
"CCS(=O)(=O)Nc1ccc2c(c1)/C(=C(/Nc1ccc(CN3CCCCC3)cc1)c1ccccc1)C(=O)N2 [Hesperadin, (Z)—N-(2-oxo-3-(Phenyl(4-(piperidin-1-ylmethyl)phenylamino)methylene)indolin-5-yl)ethanesulfonamide]",Collagen 3A1 mRNA expression,[1],confirmed by real-time RT-PCR analysis
same,increase in HSC cell size,"human HSC's (LX-2); 0.625 or 1.25 μM, 48 hrs",2-3 folds
same,increase in HSC size (FIG. 1),"human HSC's (LX-2); 0.65 and 1.25 μM, 24 hours",several folds
same,time to enter anaphase,Mammalian cells; cells arrested by taxol or monastrol,< 1 h
same,time cells stayed arrested,Mammalian cells; cells in nocodazole,3 to 5 h
same,effect on nuclear division and cytokinesis,Mammalian cells,blocks nuclear division and cytokinesis
